The record followed here is patent US8703761B2, “Organic compounds” (Novartis AG, priority 2008, dated 2014).

For this assay, the target named is human DGAT1 (Homo sapiens (Human), UniProt O75907). Put plainly: DGAT1 Inhibition Assay. It counts as biochemical. To be noted: membrane preparation from Sf9 cells overexpressing human (His)6DGAT1; LC/MS/MS readout. As to the method: The enzyme preparation used in this assay is a membrane preparation from Sf9 cells overexpressing human (His)6DGAT1. During all steps samples were chilled to 4° C. Sf9 cells expressing human (His)6DGAT1 were thawed at room temperature and re-suspended at a 10:1 ratio (mL buffer/g of cells) in 50 mM HEPES, 1× Complete Protease Inhibitor, pH 7.5. The re-suspended pellet was homogenized for 1 min using a Brinkman PT 10/35 homogenizer with a 20 mm generator. Cells were lysed using Avestin Emulsiflex (chilled to 4° C.) at 10000-15000 psi. Lysate was centrifuged at 100,000×g for 1 h at 4° C. Supernatant was removed and pellets were re-suspended in 50 mM HEPES, 1× Complete Protease Inhibitor, pH 7.5 at ⅙ the volume of supernatant. Re-suspended pellets were pooled and homogenized with 10 strokes of a Glas-Col motor driven teflon pestle on setting 70. The protein concentration of the membrane preparation was quantified using BCA protein assay with 1% SDS. The membrane preparation was aliquoted, frozen on dry ice, and stored at −80° C.
Chain of human DGAT1 (O75907 whole entry): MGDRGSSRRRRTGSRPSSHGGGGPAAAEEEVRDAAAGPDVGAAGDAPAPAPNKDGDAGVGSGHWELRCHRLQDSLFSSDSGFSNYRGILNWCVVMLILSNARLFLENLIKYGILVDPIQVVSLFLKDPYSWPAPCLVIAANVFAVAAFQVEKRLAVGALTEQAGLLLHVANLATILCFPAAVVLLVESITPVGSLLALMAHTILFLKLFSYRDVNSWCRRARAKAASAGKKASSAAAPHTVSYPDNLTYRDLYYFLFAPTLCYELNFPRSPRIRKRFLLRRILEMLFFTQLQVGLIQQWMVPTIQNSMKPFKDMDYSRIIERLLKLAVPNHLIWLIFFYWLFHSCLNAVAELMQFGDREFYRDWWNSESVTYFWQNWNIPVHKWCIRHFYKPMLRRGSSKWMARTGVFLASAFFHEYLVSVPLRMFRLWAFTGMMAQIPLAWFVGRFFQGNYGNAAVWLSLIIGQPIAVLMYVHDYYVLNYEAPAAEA
For 50 mL, 25 mL of 0.2 M HEPES stock buffer, 0.5 mL of 1 M MgCl2 ([…]), and 24.5 mL of milli-Q H2O are added to the 55 mL Wheaton Potter-Elvehjem homogenizer. Enzyme preparation (0.1 mL) is added to buffer and the mixture is homogenized with 5 strokes on ice using the Glas-Col variable speed homogenizer system on setting 70.
For 50 mL, 0.5 mL 10 mM diolein is added to 9.5 mL of EtOH in a 50 mL Falcon screw cap conical centrifuge tube. Five mL of 10 mM sodium acetate pH 4.5 is added followed by 0.5 mL of 10 mM oleoyl-CoA. Finally, the remaining 4.5 mL of 10 mM sodium acetate pH 4.5 is added followed by 30 mL of milli-Q H20. The solution should be gently agitated by hand to induce mixing. The final concentrations of EtOH and sodium acetate are 20% and 2 mM, respectively.
Dry compounds are dissolved in the appropriate volume of DMSO to a final concentration of 10 mM. A 10-point, 3-fold dose response is used to evaluate compound potency. All dilutions are performed in DMSO in a Greiner 384-well microplate. • 1. 2 μL of compound in DMSO is added to the appropriate wells, 2 μL of DMSO is added to 100% activity and 100% inhibition controls. • 2. 25 μL of enzyme mix is added to all wells and plate(s) are incubated for 10 min at RT. • 3. 10 μL of 20% acetic acid quench is added to 100% inhibition control wells. Plate(s) are vortexed using Troemner multi-tube vortexer (setting 7 for 10 sec). • 4. 25 μL of substrate mix is added to all wells. Plate(s) are vortexed using Troemner multi-tube vortexer (setting 7 for 10 sec). Plate(s) are incubated for 30 min at RT. • 5. 10 μL of 20% acetic acid quench is added to all wells. Plate(s) are vortexed using Troemner multi-tube vortexer (setting 7 for 10 sec). • 6. 50 μL of 1-butanol w/glyceryl tripalmitoleate internal standard is added to all wells. • 7. Plate(s) are sealed with super pierce strong plate sealer using the thermo-sealer. • 8. Plate(s) are vortexed using Troemner multi-tube vortexer (setting 10 for 5 min). • 9. Plate(s) are centrifuged at 162×g (1000 rpm for GH-3.8 rotor) for 5 min using Beckman GS-6R tabletop centrifuge.
Samples were analyzed by LC/MS/MS using a Waters 1525μ LC and Quattro Micro API MS. Where indicated, tripalmitolein was used as an internal standard to control for instrument variation.
Data is converted to % inhibition prior to curve fitting using the following equation: […]
The molecule `COc1ccccc1C(=O)NC(C)(C)C(=O)Nc1nc(-c2ccccc2)c(Cc2ccccc2)s1` [Example 1-8, N-[1-(5-Benzyl-4-phenyl-thiazol-2-ylcarbamoyl)-1-methyl-ethyl]-2-methoxy-benzamide] showed an IC50 of 8.5 nM.
The molecule `CC(C)(NC(=O)c1ccccn1)C(=O)Nc1nc(-c2ccccc2)c(Cc2ccccc2)s1` [Example 1-29, Pyridine-2-carboxylic acid [1-(5-benzyl-4-phenyl-thiazol-2-ylcarbamoyl)-1-methyl-ethyl]-amide] yielded an IC50 of 3.5 nM.
`CC(C)(NS(=O)(=O)c1ccc(F)cc1)C(=O)Nc1nc(-c2ccccc2)c(Cc2ccccc2)s1` [Example 1-6, N-(5-Benzyl-4-phenyl-thiazol-2-yl)-2-(4-fluoro-benzenesulfonylamino)-2-methyl-propionamide] yielded an IC50 of 241 nM.
In the case of `O=C(Nc1cc(-c2ccccc2)c2ccccc2n1)C1CCCN1C(=O)CC1CCCC1` (stereo in doubt) [Example 8-1, (S)-1-(2-Cyclopentyl-acetyl)-pyrrolidine-2-carboxylic acid (4-phenyl-quinolin-2-yl)-amide] it was 54.5 nM; in that of `CC(C)(NC(=O)c1ccc(OC(F)(F)F)cc1)C(=O)Nc1nc(-c2ccc(F)cc2)c(Oc2ccc(F)cc2)s1` [Example 6-1, N-{1-[5-(4-Fluoro-phenoxy)-4-(4-fluoro-phenyl)-thiazol-2-ylcarbamoyl]-1-methyl-ethyl}-4-trifluoromethoxybenzamide], 910 nM.
The figure for `Cc1cc(C(=O)NC(C)(C)C(=O)Nc2nc(-c3ccc(F)cc3)n(Cc3ccccc3)n2)no1` [Example 14-28, 5-Methyl-isoxazole-3-carboxylic acid {1-[1-benzyl-5-(4-fluoro-phenyl)-1H-[1,2,4]triazol-3-ylcarbamoyl]-1-methyl-ethyl}-amide] is 6130 nM; for `O=C(Nc1nc(-c2ccccc2)c(Cc2ccccc2)s1)[C@@H]1CCCN1C(=O)Nc1ccc(C(F)(F)F)cc1F` [Example 4-9, (S)-Pyrrolidine-1,2-dicarboxylic acid 2-[(5-benzyl-4-phenyl-thiazol-2-yl)-amide] 1-[(2-fluoro-4-trifluoromethyl-phenyl)-amide]] it is 473 nM; for `Cc1ccccc1NC(=O)N1CCCC1C(=O)Nc1nc(-c2ccccc2)c(Cc2ccccc2)s1` (stereo not shown) [Example 4-2, Pyrrolidine-1,2-dicarboxylic acid 2-[(5-benzyl-4-phenyl-thiazol-2-yl)-amide] 1-o-tolylamide] it is 232 nM.
As for `CC(C)(NC(=O)N1CCCOCC1)C(=O)Nc1nc(C(F)(F)F)c(C(=O)c2ccc(F)cc2)s1` [Example 12-4, [1,4]Oxazepane-4-carboxylic acid {1-[5-(4-fluoro-benzoyl)-4-trifluoromethyl-thiazol-2-ylcarbamoyl]-1-methyl-ethyl}-amide], the IC50 was found to be 2080 nM.
In the case of `Cc1ccc(-c2cc(NC(=O)[C@@H]3CCCN3C(=O)OC(C)(C)C)nc(-c3ccccc3)c2)cc1` [Example 8-2, (S)-2-(6-Phenyl-4-p-tolyl-pyridin-2-ylcarbamoyl)-pyrrolidine-1-carboxylic acid tert-butyl ester] it was 240 nM; in that of `CC(C)(NC(=O)c1ccccn1)C(=O)Nc1nc(-c2ccc(F)cc2)n(Cc2ccccc2)n1` [Example 14-4, Pyridine-2-carboxylic acid {1-[1-benzyl-5-(4-fluoro-phenyl)-1H-[1,2,4]triazol-3-ylcarbamoyl]-1-methyl-ethyl}-amide], 225 nM.
In the case of `CCOc1ccc(C(=O)NC(C)(C)C(=O)Nc2nc(-c3ccccc3)c(Cc3ccccc3)s2)cc1OCC` [Example 1-1, N-[1-(5-Benzyl-4-phenyl-thiazol-2-ylcarbamoyl)-1-methyl-ethyl]-3,4-diethoxy-benzamide] it was 60.5 nM; in that of `CC(C)(NC(=O)c1cncs1)C(=O)Nc1nc(-c2ccc(F)cc2)c(Oc2ccc(F)cc2)s1` [Example 6-14, Thiazole-5-carboxylic acid {1-[5-(4-fluoro-phenoxy)-4-(4-fluoro-phenyl)-thiazol-2-ylcarbamoyl]-1-methyl-ethyl}-amide], 197 nM.
On to `CC(C)(NC(=O)c1cnco1)C(=O)Nc1nc(-c2ccc(F)cc2)n(Cc2ccccc2)n1` [Example 14-24, Oxazole-5-carboxylic acid {1-[1-benzyl-5-(4-fluoro-phenyl)-1H-[1,2,4]triazol-3-ylcarbamoyl]-1-methyl-ethyl}-amide], for which the IC50 stood at 1750 nM.
The figure for `CC1(C(=O)NC(C)(C)C(=O)Nc2nc(C(F)(F)F)c(C(=O)c3ccc(F)cc3)s2)CC1` [Example 12-3, 1-Methyl-cyclopropanecarboxylic acid {1-[5-(4-fluoro-benzoyl)-4-trifluoromethyl-thiazol-2-ylcarbamoyl]-1-methyl-ethyl}-amide] is 1180 nM.
For the molecule `CC(C)(NC(=O)c1ccc2occc2c1)C(=O)Nc1nc(-c2ccccc2)c(Cc2ccccc2)s1` [Example 1-28, Benzofuran-5-carboxylic acid [1-(5-benzyl-4-phenyl-thiazol-2-ylcarbamoyl)-1-methyl-ethyl]-amide], the IC50 worked out at 11 nM.
As to `CC(C)(NC(=O)N1CCOCC1)C(=O)Nc1nc(-c2ccc(F)cc2)c(Oc2ccc(F)cc2)s1` [Example 6-2, Morpholine-4-carboxylic acid {1-[5-(4-fluoro-phenoxy)-4-(4-fluoro-phenyl)-thiazol-2-ylcarbamoyl]-1-methyl-ethyl}-amide], 52.5 nM corresponded to half-maximal inhibition (IC50).
The figure for `CC(C)(NC(=O)c1cccnc1)C(=O)Nc1nc(-c2ccc(F)cc2)c(Oc2ccc(F)cc2)s1` [Example 6-9, N-{1-[5-(4-Fluoro-phenoxy)-4-(4-fluoro-phenyl)-thiazol-2-ylcarbamoyl]-1-methyl-ethyl}-nicotinamide] is 622 nM.
In the case of `CN1CCC[C@H]1C(=O)NC(C)(C)C(=O)Nc1nc(-c2ccc(F)cc2)n(Cc2ccccc2)n1` [Example 14-3, (S)-1-Methyl-pyrrolidine-2-carboxylic acid {1-[1-benzyl-5-(4-fluoro-phenyl)-1H-[1,2,4]triazol-3-ylcarbamoyl]-1-methyl-ethyl}-amide] it was 2300 nM.
